One assay has as its system E. coli. The assay can be described thus: microbe, parasite or virus in culture. Particulars: 3 h. On the procedure: Bacteria were obtained from the American Type Culture Collection (ATCC; Manassas, VA, USA), Merck Sharp & Dohme (Kenilworth, NJ), the Coli Genetic Stock Center (CGSC, Yale University), Network on Antimicrobial Resistance in Staphylococcus aureus (NARSA) via BEI Resources (www.beiresources.org) and independent academic clinical isolate and mutant collections. All species used in this study were described fully in Table S4. Bacteria were cultured in Cation-Adjusted Mueller-Hinton Broth (CAMHB, Bacto Laboratories, Cat No. 212322) or Muller Hinton Broth (MHB, Bacto Laboratories, Cat No. 211443) at 37 °C overnight. A sample of each culture was then diluted 50-fold in MHB and incubated at 37 °C for 1.5–3 h. The stock solutions of vancomycin probes 7, 8 and 9 were prepared at 1.28 mg/mL in sterile water. The compounds were serially diluted two-fold across the wells, with concentrations ranging from 0.06 µg/mL to 128 µg/mL, plated in duplicate. […]

Assay [1] has as its system S. aureus ATCC 25923. Kind of assay: Flow cytometry comparison with commercial fluorescent probes (Fig. S2A). Particulars: 2 and 16 µg/mL, 30 min 37 °C. In kind it is cell-based. The source says: (§1) Figure S2. Comparison of probe 7 and probe 9 to commercial fluorescent probes using flow cytometry and microscopy. Labelling of S. aureus ATCC 25923 (A) and E. coli ATCC25922 (B) with vancomycin probe 7, probe 9, Van-FITC (SBR00028, Sigma-Aldrich), and Van-BODIPY (V34850, Invitrogen™) measured using flow […]
(§2) flow cytometer. The data are presented as the mean ± SEM (n = 3). GeoMean: Geometric Mean. (C) Airyscan confocal super-resolution imaging of vancomycin probe 7, probe 9, Van-FITC (SBR00028, Sigma-Aldrich), and Van-BODIPY (V34850, Invitrogen™) in S. aureus ATCC 25923. Bacteria were stained with probes (2 and 16 µg/mL, Green) for 30 min at 37 °C. Arrows indicate cells with Van-BODIPY entering cytoplasm. Scale bar = 1 µm.
(§3) (1 picture or pasted object on this page, not shown here)

The test system of the next assay is E. coli ATCC25922. Kind of assay: Flow cytometry comparison with commercial fluorescent probes (Fig. S2B). In kind it is cell-based. To be noted: 2 and 16 µg/mL, 30 min 37 °C.
Source text: as §1, §2, §3
(In general: A flow cytometer gives signals particle by particle.)

Assay [2] concerns S. aureus ATCC 25923. The assay can be described thus: Airyscan confocal super-resolution imaging, comparison of probes (Fig. S2C). Particulars: 2 and 16 µg/mL, 30 min 37 °C. It counts as cell-based. As to the method: Figure S2. Comparison of probe 7 and probe 9 to commercial fluorescent probes using flow cytometry
and microscopy. […]
Van-BODIPY (V34850, Invitrogen™) in S. aureus ATCC 25923. Bacteria were stained with probes (2 and 16
µg/mL, Green) for 30 min at 37 °C. Arrows indicate cells with Van-BODIPY entering cytoplasm. Scale bar = 1 µm.

Another assay relates to S. aureus. Particulars: tested S. aureus strains (Table S3); dissolved in DMSO. On the procedure:
Bacteria were obtained from the American Type Culture Collection (ATCC; Manassas, VA, USA), Merck Sharp & Dohme (Kenilworth, NJ), the Coli Genetic Stock Center (CGSC, Yale University), Network on Antimicrobial Resistance in Staphylococcus aureus (NARSA) via BEI Resources (www.beiresources.org) and independent academic clinical isolate and mutant collections. All species used in this study were described fully in Table S4. Bacteria were cultured in Cation-Adjusted Mueller-Hinton Broth (CAMHB, Bacto Laboratories, Cat No. 212322) or Muller Hinton Broth (MHB, Bacto Laboratories, Cat No. 211443) at 37 °C overnight. A sample of each culture was then diluted 50-fold in MHB and incubated at 37 °C for 1.5–3 h. […] The compounds were serially diluted two-fold across the wells, with concentrations ranging from 0.06 µg/mL to 128 µg/mL, plated in duplicate. The resultant mid-log phase culture was diluted to 1 × 10^6 CFU/mL, then 50 µL was added to each well of the compound-containing 96-well plates (Corning, Cat. No 3641, non-binding surface (NBS) plates), giving a cell density of 5 × 10^5 CFU/mL, and a final compound concentration range of 0.03 µg/mL to 64 µg/mL.

Here are results for 2 molecules from PMC10102067, “Synthesis of vancomycin fluorescent probes that retain antimicrobial activity, identify Gram-positive bacteria, and detect Gram-negative outer membrane damage” (Communications Biology, 2023).

Turning to `CN[C@H](CC(C)C)C(=O)N[C@H]1C(=O)N[C@@H](CC(N)=O)C(=O)N[C@H]2C(=O)N[C@H]3C(=O)N[C@H](C(=O)N[C@H](C(=O)O)c4cc(O)cc(O)c4-c4cc3ccc4O)[C@H](O)c3ccc(c(Cl)c3)Oc3cc2cc(c3O[C@@H]2O[C@H](CO)[C@@H](O)[C@H](O)[C@H]2O[C@H]2C[C@](C)(NC(=O)CCc3ccc4n3[B-](F)(F)[N+]3=C(C)C=C(C)C3=C4)[C@H](O)[C@H](C)O2)Oc2ccc(cc2Cl)[C@H]1O` [Van-BODIPY], in the assay with E. coli, the MIC was above 64 µg/mL. Further, the “staining of S. aureus (flow cytometry, in words)” value in the assay on S. aureus ATCC 25923 [1] is “greatest intensity”. For the same molecule, the “staining of E. coli (flow cytometry, in words)” value in the assay on E. coli ATCC25922 is listed as “stained a larger population of cells than the other probes”. Further, the “peptidoglycan labelling pattern (Airyscan imaging, in words)” value in the assay with S. aureus ATCC 25923 [2] is given as “label the cells more uniformly”.

With `CC(C)C[C@H](C(=O)N[C@H]1C(=O)N[C@@H](CC(N)=O)C(=O)N[C@H]2C(=O)N[C@H]3C(=O)N[C@H](C(=O)N[C@H](C(=O)O)c4cc(O)cc(O)c4-c4cc3ccc4O)[C@H](O)c3ccc(c(Cl)c3)Oc3cc2cc(c3O[C@@H]2O[C@H](CO)[C@@H](O)[C@H](O)[C@H]2O[C@H]2C[C@](C)(N)[C@H](O)[C@H](C)O2)Oc2ccc(cc2Cl)[C@H]1O)N(C)C(=S)Nc1ccc2c(c1)C(=O)OC21c2ccc(O)cc2Oc2cc(O)ccc21` [Van-FITC], the “antimicrobial activity at the highest concentration tested” value with S. aureus is given as above 32 µg/mL. The MIC against E. coli was above 64 µg/mL. Moreover, the “staining of S. aureus (flow cytometry, in words)” value in the assay on S. aureus ATCC 25923 [1] is reported as “the worst”. The “staining of E. coli (flow cytometry, in words)” value with E. coli ATCC25922 was “did not show much staining”. Moreover, the “peptidoglycan labelling pattern (Airyscan imaging, in words)” value in the assay on S. aureus ATCC 25923 [2] was “no fluorescence signal observed at 2 µg/mL”.
